Measured values: patent US9371295B2, “Compounds for use in the treatment of disorders that are ameliorated by inhibition of HDAC” (IRBM—Science Park S.p.A., priority 2012, dated 2016)

Experiments:
[1] = system: human γ-globin promoter (EGFP reporter) in K562 cells; experiment: HbF activation assay on K562 (EGFP/RFP reporter model system for screening of inducers of fetal hemoglobin); format: cell-based; details: 60 hours
From the text: In order to test several compounds, a model system was produced based on previous findings present in the literature. The K562 erythroid-like cell lines, isolated and characterized by Lozzio & Lozzio (Blood, 45(3), pp 321-334) from a patient with chronic myelogenous leukemia in blast crisis, have been extensively employed as a useful in vitro model to study the molecular mechanism(s) regulating the expression of embryonic and fetal human globin genes, as well as for screening of new differentiation-inducing compounds. A stable cell line where reporter genes encoding green EGFP and far-red fluorescent protein red-FP are placed under the control of the human γ-globin or β-globin promoters respectively was used (see Vadolas et al, Hum. Mol. Genet. 2004, 13, 2, 223-233 for details). The modified 3-cluster also contains the upstream regulatory region called LCR. This cell line grows in suspension at 37° C. and 5% CO2 in humidified atmosphere in the following medium: DMEM, 10% foetal bovine serum, glutamine and antibiotics (penicillin and streptomycin);
The assay procedures is as follows: • Single concentration compounds or serially diluted samples are transferred to an empty assay plates by a spotter (ATS-100, EDC Biosystems, USA) in order to have a final concentration of DMSO of 0.25% in 50 μL of cell culture. Source plats contains compounds dissolved in 100% DMSO • Black, transparent bottom, 384 wells, tissue culture treated plates are used as assay plates. • Assay plates containing spotted compounds are filled with a suspension of cell in the described assay medium. The final cell concentration is of 1000 cells per well. • Cells are incubated in humidified atmosphere, 37° C.-5% CO2, for 60 hours • Cell nuclei are stained by adding 10 ul (6 μM; 1 μM final) Hoechst 33342 (Life Technologies, USA) • The cell associated intensity is read by a plate based cytometer (ACUMEN explorer, TTP Labtech, UK) • The nuclei count is used to assess the cell proliferation/death and to normalize the total EGFP/RFP intensity. HbF Activation Assay in Human Cell Line K562
The compounds of the invention were tested in the HbF activation assay on K562, as model system for screening of potential inducers of fetal hemoglobin.

HDAC1 = target: T1, HDAC1 (Homo sapiens, UniProt Q13547); experiment: HDAC1 assay (Fluor-de-Lys fluorescent deacetylase assay); format: biochemical; details: read-out: hHDAC IC50
T1 construct: made in house
T1 sequence (Q13547 whole entry): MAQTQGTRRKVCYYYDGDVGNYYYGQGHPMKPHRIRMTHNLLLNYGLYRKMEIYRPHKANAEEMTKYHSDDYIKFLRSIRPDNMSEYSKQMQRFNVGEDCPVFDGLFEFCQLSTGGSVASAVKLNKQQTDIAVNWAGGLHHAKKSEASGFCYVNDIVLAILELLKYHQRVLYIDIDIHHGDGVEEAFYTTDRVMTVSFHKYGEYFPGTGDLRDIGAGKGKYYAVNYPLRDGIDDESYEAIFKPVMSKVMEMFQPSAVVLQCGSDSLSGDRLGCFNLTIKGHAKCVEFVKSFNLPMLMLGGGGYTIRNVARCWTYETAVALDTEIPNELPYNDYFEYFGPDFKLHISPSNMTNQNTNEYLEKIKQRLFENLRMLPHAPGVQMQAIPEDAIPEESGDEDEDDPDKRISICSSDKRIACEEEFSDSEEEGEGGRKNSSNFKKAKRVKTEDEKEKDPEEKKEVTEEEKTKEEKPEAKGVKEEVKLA
Procedure: The HDAC1 assay is used to quantify the histone deacetylase (HDAC) activity. The assay is performed in 384 well microtiter plates by pre-incubating serial dilutions of the compounds with a fixed concentration of HeLa nuclear extract or purified HDAC1 and then adding an acetylated lysine-containing substrate/developer that fluoresces upon deacetylation.
Reagents of the HDAC Fluorescent Activity Assay are purchased from BioMol Research Laboratories (Plymouth Meeting, Pa.) and feature the Fluor-de-Lys™ Substrate/Developer System.
TSA Stock: TSA is provided as a 10 mM stock solution in 100% dimethylsulfoxide (DMSO). […] The final concentration in the assay is 20 uM.
3 uM [final] TSA to this solution increases its ability to stop the reaction.
HDAC1 Working Solution: The HDAC1 enzyme is diluted in assay buffer prior to each use from a fresh aliquot of enzyme. The final concentration in the assay is 1-2 nM.
Compounds: Test compounds are directly transferred from a 100% DMSO solution into assay plates by spotting nanoliters of solutions by an acoustic dispenser (ATS-100, EDC biosystems, US).
HeLa cells transiently transfected with pCDNA3-HDAC1-FLAG are grown to 80% confluence on 10 cm culture dishes in DMEM, 10% Fetal bovine serum supplemented with antibiotics and glutamine. Cells are washed with 10 ml cold PBS and scraped into 2 ml of PBS. Cells are centrifuged for 5 minutes at 800×g at 4° C., washed with 30 ml PBS and resuspended in 10 ml PBS, counted, re-centrifuged and frozen at −80° C.
The frozen cell pellet is re-suspended in 1 ml of hypotonic lysis buffer (LB: 20 mM Hepes pH7.9, 0.25 mM EDTA, 10% glycerol) containing COMPLETE protease inhibitor and incubated on ice for 15 minutes, followed by homogenization on a 2-ml DounceB homogenizer (25 strokes). 150 mM KCl and 0.5% NP-40 are added to the homogenate and the solution is sonicated twice for 30 seconds (output5/6, duty cycle 90) and incubated for 1 hour at 4° C. After a 30 minutes centrifugation at 12000 rpm and 4° C. the supernatant (soluble extract) is collected and protein concentration is determined using the BIORAD assay.
Anti-FLAG M2 affinity resin (Sigma) is washed three times with TBS and twice with LB. 10 μl of the LB-washed resin/mg of protein (2-3 ug of Flagged-HDAC1) are added to the soluble extract (1 mL) and incubated overnight at 4° C. with gentle mixing. The resin is then collected by centrifugation, washed once with LB, twice with LB+0.1% NP40 and twice with elution buffer (50 mM Hepes pH 7.4, 5% glycerol, 100 mM KCl, 0.01% Triton X-100).
The concentration of purified HDAC is determined by Western blot analysis.

HDAC in Hela cells = experiment: HDAC Hela Cell Based assay

SMILES	EC50 [1]	IC50 (HDAC1)	IC50 (HDAC in Hela cells)
CCC(=O)CCCCC[C@H](NC(=O)C1CCN(C)CC1)c1ncc(-c2cc3ccccc3nc2OC)o1 [Compound 39]	100 to 1000 nM	< 100 nM	< 100 nM
CCC(=O)CCCCC[C@H](NC(=O)c1cncs1)c1ncc(-c2cc3ccccc3nc2OC)o1 [Compound 40, (S)-N-(1-(5-(2-methoxyquinolin-3-yl)oxazol-2-yl)-7-oxononyl)thiazole-5-carboxamide]	> 1000 nM	< 100 nM	< 100 nM
CCC(=O)CCCCC[C@H](NC(=O)C(=O)N(C)C)c1nnc(-c2cc3ccccc3nc2OC)o1 [Compound 45, (S)-N1-(1-(5-(2-methoxyquinolin-3-yl)-1,3,4-oxadiazol-2-yl)-7-oxononyl)-N2,N2-dimethyloxalamide]	> 1000 nM	< 100 nM	100 to 1000 nM
CCC(=O)CCCCC[C@H](NC(=O)C(=O)N1CCN(C)CC1)c1nnc(-c2cc3ccccc3nc2OC)o1 [Compound 46, (S)-N-(1-(5-(2-methoxyquinolin-3-yl)-1,3,4-oxadiazol-2-yl)-7-oxononyl)-2-(4-methylpiperazin-1-yl)-2-oxoacetamide]	> 1000 nM	< 100 nM	100 to 1000 nM
CCC(=O)CCCCC[C@H](NC(=O)C1CCN(C)CC1)c1nnc(-c2cc3ccccc3nc2OC)o1 [Compound 47, (S)-N-(1-(5-(2-methoxyquinolin-3-yl)-1,3,4-oxadiazol-2-yl)-7-oxononyl)-1-methylpiperidine-4-carboxamide]	100 to 1000 nM	< 100 nM	100 to 1000 nM
CCC(=O)CCCCC[C@H](NC(=O)Cc1c(C)[nH]c2ccc(OC)cc12)c1nnc(-c2cc3ccccc3nc2OC)o1 [Compound 48, (S)-2-(5-methoxy-2-methyl-1H-indol-3-yl)-N-(1-(5-(2-methoxyquinolin-3-yl)-1,3,4-oxadiazol-2-yl)-7-oxononyl)acetamide]	> 1000 nM	< 100 nM	< 100 nM
CCC(=O)CCCCC[C@H](NC(=O)CCn1c(CC)nc2ccccc21)c1nnc(-c2cc3ccccc3nc2OC)o1 [Compound 50, (S)-3-(2-ethyl-1H-benzo[d]imidazol-1-yl)-N-(1-(5-(2-methoxyquinolin-3-yl)-1,3,4-oxadiazol-2-yl)-7-oxononyl)propanamide]	100 to 1000 nM	< 100 nM	100 to 1000 nM
CCC(=O)CCCCC[C@H](NC(=O)CCN(C)C)c1nnc(-c2cc3ccccc3nc2OC)o1 [Compound 51, (S)-3-(dimethylamino)-N-(1-(5-(2-methoxyquinolin-3-yl)-1,3,4-oxadiazol-2-yl)-7-oxononyl)propanamide]	> 1000 nM	< 100 nM	100 to 1000 nM
CCC(=O)CCCCC[C@H](NC(=O)C1CN(C)C1)c1ncc(-c2ccc(-c3ccn[nH]3)cc2)o1 [Compound 53, (S)-N-(1-(5-(4-(1H-pyrazol-5-yl)phenyl)oxazol-2-yl)-7-oxononyl)-1-methylazetidine-3-carboxamide]	> 1000 nM	< 100 nM	100 to 1000 nM
CCC(=O)CCCCC[C@H](NC(=O)C1CN(C)C1)c1ncc(-c2ccc(-c3ccnn3C)cc2)o1 [Compound 54, (S)-1-methyl-N-(1-(5-(4-(1-methyl-1H-pyrazol-5-yl)phenyl)oxazol-2-yl)-7-oxononyl)azetidine-3-carboxamide]	> 1000 nM	< 100 nM	100 to 1000 nM
CCC(=O)CCCCC[C@H](NC(=O)C1CN(C(C)=O)C1)c1ncc(-c2cc3ccccc3nc2OC)o1 [Compound 55, (S)-1-acetyl-N-(1-(5-(2-methoxyquinolin-3-yl)oxazol-2-yl)-7-oxononyl)azetidine-3-carboxamide]	> 1000 nM	< 100 nM	100 to 1000 nM
CCC(=O)CCCCC[C@H](NC(=O)C1CN(Cc2ccccc2)C1)c1ncc(-c2cc3ccccc3nc2OC)o1 [Compound 56, (S)-1-benzyl-N-(1-(5-(2-methoxyquinolin-3-yl)oxazol-2-yl)-7-oxononyl)azetidine-3-carboxamide]	> 1000 nM	< 100 nM	100 to 1000 nM
CCC(=O)CCCCC[C@H](NC(=O)C1CNC1)c1ncc(-c2cc3ccccc3nc2OC)o1 [Compound 57, (S)-N-(1-(5-(2-methoxyquinolin-3-yl)oxazol-2-yl)-7-oxononyl)azetidine-3-carboxamide]	> 1000 nM	< 100 nM	100 to 1000 nM
CCC(=O)CCCCC[C@H](NC(=O)[C@@H]1CC(F)(F)CN1C)c1ncc(-c2cc3ccccc3nc2OC)o1 [Compound 58, (S)-4,4-difluoro-N-((S)-1-(5-(2-methoxyquinolin-3-yl)oxazol-2-yl)-7-oxononyl)-1-methylpyrrolidine-2-carboxamide]	> 1000 nM	< 100 nM	100 to 1000 nM
CCC(=O)CCCCC[C@H](NC(=O)Cn1ccnn1)c1ncc(-c2cc3ccccc3nc2OC)o1 [Compound 59, (S)-N-(1-(5-(2-methoxyquinolin-3-yl)oxazol-2-yl)-7-oxononyl)-2-(1H-1,2,3-triazol-1-yl)acetamide]	> 1000 nM	< 100 nM	100 to 1000 nM
CCC(=O)CCCCC[C@H](NC(=O)[C@@H]1CC(F)(F)CN1)c1ncc(-c2cc3ccccc3nc2OC)o1 [Compound 60, (S)-4,4-difluoro-N-((S)-1-(5-(2-methoxyquinolin-3-yl)oxazol-2-yl)-7-oxononyl)pyrrolidine-2-carboxamide]	> 1000 nM	< 100 nM	> 1000 nM
CCC(=O)CCCCC[C@H](NC(=O)C1CN(C)C1)c1ncc(-c2ccc(-n3cccn3)cc2)o1 [Compound 61, (S)-N-(1-(5-(4-(1H-pyrazol-1-yl)phenyl)oxazol-2-yl)-7-oxononyl)-1-methylazetidine-3-carboxamide]	> 1000 nM	< 100 nM	100 to 1000 nM
CCC(=O)CCCCC[C@H](NC(=O)C1CN(C(C)=O)C1)c1ncc(-c2ccc(-n3cccn3)cc2)o1 [Compound 62, (S)-N-(1-(5-(4-(1H-pyrazol-1-yl)phenyl)oxazol-2-yl)-7-oxononyl)-1-acetylazetidine-3-carboxamide]	> 1000 nM	< 100 nM	100 to 1000 nM
CCC(=O)CCCCC[C@H](NC(=O)[C@H](CC(F)(F)F)N(C)C)c1ncc(-c2cc3ccccc3nc2OC)o1 [Compound 63, (S)-2-(dimethylamino)-4,4,4-trifluoro-N-((S)-1-(5-(2-methoxyquinolin-3-yl)oxazol-2-yl)-7-oxononyl)butanamide]	> 1000 nM	100 to 1000 nM	> 1000 nM
CCC(=O)CCCCC[C@H](NC(=O)[C@@H](CC(F)(F)F)N(C)C)c1ncc(-c2cc3ccccc3nc2OC)o1 [Compound 64, (R)-2-(dimethylamino)-4,4,4-trifluoro-N-((S)-1-(5-(2-methoxyquinolin-3-yl)oxazol-2-yl)-7-oxononyl)butanamide]	> 1000 nM	< 100 nM	> 1000 nM
